Values joined by “and” are separate entries in the source; they are usually repeats but may differ in a detail not shown here. Equal entries are not always repeated.
Columns and labels:
[1] = target: Rat2 fibroblasts stably transformed with v-Src/Hu c-Src fusion gene (Homo sapiens, UniProt P12931, cells depend on it, form not given); test: Anchorage Independent Src-transformed Fibroblast Proliferation Assay; type: cell-based, Rat; details: suspension growth, MTS reagent on Day 5; read-out: anch-indep src-tx fib IC50
Sequence of Rat2 fibroblasts stably transformed with v-Src/Hu c-Src fusion gene (P12931 whole entry, change not shown, the tested form may be a part): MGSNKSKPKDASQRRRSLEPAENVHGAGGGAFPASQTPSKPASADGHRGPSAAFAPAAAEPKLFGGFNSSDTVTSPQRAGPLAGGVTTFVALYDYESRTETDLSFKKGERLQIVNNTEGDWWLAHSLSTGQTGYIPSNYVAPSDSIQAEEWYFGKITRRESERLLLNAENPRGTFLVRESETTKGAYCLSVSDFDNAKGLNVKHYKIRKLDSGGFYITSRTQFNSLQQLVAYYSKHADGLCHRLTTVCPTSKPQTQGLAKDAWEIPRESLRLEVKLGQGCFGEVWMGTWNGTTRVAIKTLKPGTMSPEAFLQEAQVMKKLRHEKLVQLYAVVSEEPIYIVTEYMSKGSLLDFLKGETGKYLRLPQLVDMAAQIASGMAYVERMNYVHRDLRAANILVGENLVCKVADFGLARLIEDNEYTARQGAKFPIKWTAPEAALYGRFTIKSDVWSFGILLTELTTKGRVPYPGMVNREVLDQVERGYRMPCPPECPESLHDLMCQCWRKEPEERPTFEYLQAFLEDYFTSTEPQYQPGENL
Protocol: Anchorage Independent Src-transformed Fibroblast Proliferation Assay
Rat2 fibroblasts stably transformed with a plasmid containing a CMV promotor controlled v-Src/Hu c-Src fusion gene in which the catalytic domain of human c-Src was inserted in place of the v-Src catalytic domain in the v-Src gene are used for the measurement of src dependent suspension growth. […] Multiple entries for a given compound indicate that it was tested multiple times.

Row | SMILES | GI50 [1] | melting point
1 | COc1cc(Nc2c(C#N)cnc3cc(-c4ccc(CN5CCC(C(=O)O)CC5)cc4)ccc23)c(Cl)cc1Cl [Example 237, 1-{4-[3-Cyano-4-(2,4-dichloro-5-methoxyanilino)-7-quinolinyl]benzyl}-4-piperidinecarboxylic acid] | 490 nM and 520 nM and 410 nM | 248 °C
2 | COc1cc(Nc2c(C#N)cnc3cc(-c4cnc(CN5CCOCC5)n4C)c(OC)cc23)c(Cl)cc1Cl [Example 232, 4-(2,4-Dichloro-5-methoxyanilino)-6-methoxy-7-[1-methyl-2-(4-morpholinylmethyl)-1H-imidazol-5-yl]-3-quinolinecarbonitrile] | 3500 nM | 248 to 252 °C
3 | COc1cc(Nc2c(C#N)cnc3cc(-c4ccc5ccccc5c4)ccc23)c(Cl)cc1Cl [Example 117, 4-(2,4-Dichloro-5-methoxyanilino)-7-(2-naphthyl)-3-quinolinecarbonitrile] | 6900 nM | 243 to 244 °C
4 | COc1cc(Nc2c(C#N)cnc3cc(-c4cncn4CCN4CCOCC4)ccc23)c(Cl)cc1Cl [Example 64, 4-(2,4-Dichloro-5-methoxyanilino)-7-{1-[2-(4-morpholinyl)ethyl]-lH-imidazol-5-yl}-3-quinolinecarbonitrile] | > 10000 nM | 150 °C (dec.)
5 | COc1cc(Nc2c(C#N)cnc3cc(-c4ccc(Oc5ccc(CN6CCOCC6)cc5)nc4)ccc23)c(Cl)cc1Cl [Example 193, 4-(2,4-Dichloro-5-methoxyanilino)-7-{6-[4-(4-morpholinylmethyl)phenoxy]-3-pyridinyl)-3-quinolinecarbonitrile] | > 10000 nM | 176 to 178 °C
6 | COc1cc(Nc2c(C#N)cnc3cc(-c4ccc(CN5CCOCC5)cc4)ccc23)c(Cl)cc1F [Example 235, 4-(2-Chloro-4-fluoro-5-methoxyanilino)-7-[4-(4-morpholinylmethyl)phenyl]-3-quinolinecarbonitrile] | 790 nM | 174 to 178 °C
7 | COc1cc(Nc2c(C#N)cnc3cc(-c4cccc5ccccc45)ccc23)c(Cl)cc1Cl [Example 116, 4-(2,4-Dichloro-5-methoxyanilino)-7-(1-naphthyl)-3-quinolinecarbonitrile] | > 10000 nM | 192 to 193 °C
8 | COc1ccc(C#Cc2ccc3c(Nc4cc(OC)c(Cl)cc4Cl)c(C#N)cnc3c2)cc1 [Example 90, 4-(2,4-dichloro-5-methoxyanilino)-7-[2-(4-methoxyphenyl)ethynyl]-3-quinolinecarbonitrile] | > 10000 nM | 225 to 226 °C
9 | COc1cc(Nc2c(C#N)cnc3cc(-c4csc(CN5CCOCC5)c4)ccc23)c(Cl)cc1C [Example 80, 4-(2-chloro-5-methoxy-4-methylanilino)-7-[5-(4-morpholinylmethyl)-3-thienyl]-3-quinolinecarbonitrile] | 80 nM | 168 to 170 °C
10 | COc1cc(Nc2c(C#N)cnc3cc(-c4ccc(C(=O)O)cc4)ccc23)c(Cl)cc1Cl [Example 121, 4-[3-Cyano-4-(2,4-dichloro-5-methoxyanilino)-7-quinolinyl]benzoic acid] | > 10000 nM | 282 to 283 °C
11 | COc1cc(Nc2c(C#N)cnc3cc(-c4ccc(CN5CCCCC5C(=O)O)cc4)ccc23)c(Cl)cc1Cl (stereo not shown) [Example 147, 1-{4-[3-Cyano-4-(2,4-dichloro-5-methoxyanilino)-7-quinolinyl]benzyl}-2-piperidinecarboxylic acid] | 4600 nM | 230 °C (dec.)
12 | COc1cc(Nc2c(C#N)cnc3cc(-c4ccc(CN5CCOCC5)c(CN5CCOCC5)c4)ccc23)c(Cl)cc1C [Example 133, 7-[3 ,4-Bis(4-morpholinylmethyl)phenyl]-4-(2-chloro-5-methoxy-4-methylanilino)-3-quinolinecarbonitrile] | 730 nM | 186 to 188 °C
13 | COc1cc(Nc2c(C#N)cnc3cc(-c4cc(CN5CCOCC5)c(CN5CCOCC5)s4)c(OC)cc23)c(Cl)cc1Cl [Example 82, 7-[4,5-Bis(4-morpholinylmethyl)-2-thienyl]-4-(2,4-dichloro-5-methoxyanilino)-6-methoxy-3-quinolinecarbonitrile] | 50 nM | 120 to 124 °C
14 | COc1cc(Nc2c(C#N)cnc3cc(-c4ccc(CNCCS(=O)(=O)c5ccccc5)o4)ccc23)c(Cl)cc1Cl [Example 58, 4-(2,4-Dichloro-5-methoxyanilino)-7-[5-({[2-(phenylsulfonyl)ethyl]amino}methyl)-2-furyl]-3-quinolinecarbonitrile] | 5100 nM | 123 to 128 °C
15 | COc1cc(Nc2c(C#N)cnc3cc(-c4cccn4C(=O)OC(C)(C)C)ccc23)c(Cl)cc1Cl [Example 164, tert-butyl 2-[3-cyano-4-(2,4-dichloro-5-methoxyanilino)-7-quinolinyl]pyrrole-1-carboxylate] | > 10000 nM | 135 °C (dec.)
16 | CCN1CCN(Cc2cc(-c3ccc4c(Nc5ccc(Cl)cc5Cl)c(C#N)cnc4c3)cs2)CC1 [Example 10, 4-(2,4-Dichloroanilino)-7-{5-[(4-ethyl-1-piperazinyl)methyl]-3-thienyl}-3-quinolinecarbonitrile] | 900 nM | 182 to 184 °C
17 | N#Cc1cnc2cc(-c3cc(CN4CCOCC4)c(CN4CCOCC4)s3)ccc2c1Nc1ccc(Cl)cc1Cl [Example 17] | 310 nM | 118 to 125 °C
18 | CCN1CCN(c2ccc(-c3ccc4c(Nc5cc(OC)c(Cl)cc5Cl)c(C#N)cnc4c3)nc2)CC1 [Example 179, 4-[(2,4-Dichloro-5-methoxyphenyl)amino]-7-[5-(4-ethyl-1-piperazinyl)-2-pyridinyl]-3-quinolinecarbonitrile] | 270 nM | 232 to 234 °C
19 | COc1cc(Nc2c(C#N)cnc3cc(-c4ccc(CNCCc5ccccn5)cc4)ccc23)c(Cl)cc1Cl [Example 229, 4-(2,4-Dichloro-5-methoxyanilino)-7-[4-({[2-(2-pyridinyl)ethyl]amino}-methyl)phenyl]-3-quinolinecarbonitrile] | 450 nM | 256 to 258 °C
20 | COc1cc(Nc2c(C#N)cnc3cc(/C=C/C(=O)OC(C)(C)C)ccc23)c(Cl)cc1Cl [Example 142, (E)-tert-Butyl 3-[3-cyano-4-(2,4-dichloro-5-methoxyanilino)-7-quinolinyl]-2-propenoate] | > 10000 nM | 203 to 204 °C
21 | COc1cc(Nc2c(C#N)cnc3cc(-c4ccc(CN5CCCC(C(=O)O)C5)cc4)ccc23)c(Cl)cc1Cl (stereo not shown) [Example 149, 1-(4-{3-Cyano-4-[(2,4-dichloro-5-methoxyphenyl)amino]-7-quinolinyl}benzyl)-3-piperidinecarboxylic acid] | 2500 nM | 235 °C (dec.)
22 | COc1cc(Nc2c(C#N)cnc3cc(-c4ccc(CN5CCOCC5)cc4)ccc23)c(Cl)cc1C [Example 234, 4-(2-Chloro-5-methoxy4-methylanilino)-7-[4-(4-morpholinylmethyl)phenyl]3-quinolinecarbonitrile] | 720 nM | 140 to 143 °C
23 | COc1cc(Nc2c(C#N)cnc3cc(-n4cccc4)ccc23)c(Cl)cc1Cl [Example 92, 4-(2,4-Dichloro-5-methoxyanilino)-7-pyrrol-1-yl-3-quinolinecarbonitrile] | 2110 nM | 205 to 207 °C
